Measurements reported in patent US9878977B2, “N-((3,4,5-trimethoxystyryl)aryl)cinnamamide compounds as potential anticancer agents and process for the preparation thereof” (COUNCIL OF SCIENTIFIC & INDUSTRIAL RESEARCH, priority 2014, dated 2018).
Read-outs that look alike come from different tables or passages of the source.

Assays:
Type in all cases: cell-based, Human
MCF-7 = test: SRB anti-proliferative assay, MCF-7
Description: (§1) The synthesized N-(3,4,5-trimethoxystyryl)aryl)cinnamamides were evaluated for their anti-proliferative activity in selected human cancer cell lines of breast cancer (MCF-7), prostate cancer (DU-145), lung cancer (Hop-62), cervical cancer (Hela), leukemia (K562), ovarian cancer (SK-OV-3), colon cancer (Colo-205), pancreatic (MAIPA-CA-2) by using sulforhodamine B (SRB) method (Vichai, V.; Kirtikara, K. Nat. Protoc. 2006, 1, 1112). […] CA-4 was used as the reference compound.

DU-145 = test: SRB anti-proliferative assay, DU-145
Description: as §1

Hop-62 = test: SRB anti-proliferative assay, Hop-62
Description: as §1

Hela = test: SRB anti-proliferative assay, Hela; details: read-out: GI50 Hela
Description: as §1

K562 = test: SRB anti-proliferative assay, K562
Description: as §1

SK-OV-3 = test: SRB anti-proliferative assay, SK-OV-3
Description: as §1

Colo-205 = test: SRB anti-proliferative assay, Colo-205
Description: as §1

MAIPA-CA-2 = test: SRB anti-proliferative assay, MAIPA-CA-2; details: read-out: GI50 MAIPA-CA-2
Description: as §1

[1] = MCF7, Human breast cancer, concentration of drug causing 50% inhibition of cell growth, read-out: GI50 MCF-7
[2] = DU-145, Human prostate cancer, concentration of drug causing 50% inhibition of cell growth, read-out: GI50 DU-145
[3] = HOP-62, Human lung cancer, concentration of drug causing 50% inhibition of cell growth, read-out: GI50 Hop-62
[4] = Human cervical cancer, concentration of drug causing 50% inhibition of cell growth
[5] = K562, Human leukemia, concentration of drug causing 50% inhibition of cell growth, read-out: GI50 K562
[6] = SK-OV-3, Human ovarian cancer, concentration of drug causing 50% inhibition of cell growth, read-out: GI50 SK-OV-3
[7] = COLO 205, Human colon cancer, concentration of drug causing 50% inhibition of cell growth, read-out: GI50 Colo-205
[8] = Human pancreatic, concentration of drug causing 50% inhibition of cell growth
[9] = Homo sapiens, MCF7, read-out: GI50 MCF-7
[10] = Homo sapiens, DU-145, read-out: GI50 DU-145
[11] = Homo sapiens, HOP-62, read-out: GI50 Hop-62
[12] = Homo sapiens, K562, read-out: GI50 K562
[13] = Homo sapiens, SK-OV-3, read-out: GI50 SK-OV-3
[14] = Homo sapiens, COLO 205, read-out: GI50 Colo-205

Structure (SMILES) | GI50 (MCF-7; [1]) [nM] | GI50 (DU-145; [2]) [nM] | GI50 (Hop-62; [3]) [nM] | GI50 (Hela; [4]) [nM] | GI50 (K562; [5]) [nM] | GI50 (SK-OV-3; [6]) [nM] | GI50 (Colo-205; [7]) [nM] | GI50 (MAIPA-CA-2; [8]) [nM] | GI50 (MCF-7; [9]) [nM] | GI50 (DU-145; [10]) [nM] | GI50 (Hop-62; [11]) [nM] | GI50 (Hela; Homo sapiens) [nM] | GI50 (K562; [12]) [nM] | GI50 (SK-OV-3; [13]) [nM] | GI50 (Colo-205; [14]) [nM] | GI50 (MAIPA-CA-2; Homo sapiens) [nM]
COc1cc(/C=C/C(=O)Nc2c(C=Cc3cc(OC)c(OC)c(OC)c3)ccc(OC)c2O)ccc1N [Compound 20v, (E)-3-(4-Amino-3-methoxyphenyl)-N-(2-hydroxy-3-methoxy-6-(3,4,5-trimethoxystyryl)phenyl)acrylamide] | 74 | 85 | 35 | 90 | 82 | 94 | 86 | 97 |  |  |  |  |  |  |  | 
COc1ccc(C=Cc2cc(OC)c(OC)c(OC)c2)c(NC(=O)/C=C/c2ccc(Cl)cc2)c1O [Compound 20q, (E)-3-(4-Chlorophenyl)-N-(2-hydroxy-3-methoxy-6-(3,4,5-trimethoxystyryl)phenyl)acrylamide] | 55500 | 54100 | 79400 | 38800 | 24900 | 62600 | > 100000 | > 100000 |  |  |  |  |  |  |  | 
COc1ccc(/C=C/C(=O)Nc2c(C=Cc3cc(OC)c(OC)c(OC)c3)ccc(OC)c2O)cc1O [Compound 20x, (E)-N-(2-hydroxy-3-methoxy-6-(3,4,5-trimethoxystyryl)phenyl)-3-(3-hydroxy-4-methoxyphenyl)acrylamide] | 95 | 117 | 17100 | 15900 | 23700 | 1800 | > 100000 | 46300 |  |  |  |  |  |  |  | 
COc1ccc(/C=C/C(=O)Nc2c(C=Cc3cc(OC)c(OC)c(OC)c3)ccc(OC)c2O)cc1[N+](=O)[O-] [Compound 20y, (E)-N-(2-Hydroxy-3-methoxy-6-(3,4,5-trimethoxystyryl)phenyl)-3-(4-methoxy-3-nitrophenyl)acrylamide] | 19400 | 64700 | 71300 | 49200 | 46800 | 52600 | > 100000 | > 100000 |  |  |  |  |  |  |  | 
COc1ccc(C=Cc2cc(OC)c(OC)c(OC)c2)c(NC(=O)/C=C/c2cccc(O)c2)c1O [Compound 20g, (E)-N-(2-Hydroxy-3-methoxy-6-(3,4,5-trimethoxystyryl)phenyl)-3-(3-hydroxyphenyl)acrylamide] |  |  |  |  |  |  |  |  | 63 | 70 | 82 | 94.9 | 94 | 97 | 13400 | 98
C=CCOc1cccc(/C=C/C(=O)Nc2c(C=Cc3cc(OC)c(OC)c(OC)c3)ccc(OC)c2O)c1 [Compound 20i, (E)-3-(3-(Allyloxy)phenyl)-N-(2-hydroxy-3-methoxy-6-(3,4,5-trimethoxystyryl)phenyl)acrylamide] | 83 | 85 | 60 | 78.7 | 91 | 82 | 18000 | 98 |  |  |  |  |  |  |  | 
COc1cccc(/C=C/C(=O)Nc2c(C=Cc3cc(OC)c(OC)c(OC)c3)ccc(OC)c2O)c1 [Compound 20f, (E)-N-(2-Hydroxy-3-methoxy-6-(3,4,5-trimethoxystyryl)phenyl)-3-(3-methoxyphenyl)acrylamide] | 59500 | > 100000 | 65400 | 18100 | 98 | 17600 | > 100000 | 93900 |  |  |  |  |  |  |  | 
COc1cc(/C=C/C(=O)Nc2c(C=Cc3cc(OC)c(OC)c(OC)c3)ccc(OC)c2O)ccc1[N+](=O)[O-] [Compound 20u, (E)-N-(2-Hydroxy-3-methoxy-6-(3,4,5-trimethoxystyryl)phenyl)-3-(3-methoxy-4-nitrophenyl)acrylamide] | 95 | 75 | 84 | 99 | 96 | 7900 | 96 | 23500 |  |  |  |  |  |  |  | 
COc1ccc(C=Cc2cc(OC)c(OC)c(OC)c2)c(NC(=O)/C=C/c2ccc([N+](=O)[O-])cc2)c1O [Compound 20o, (E)-N-(2-Hydroxy-3-methoxy-6-(3,4,5-trimethoxystyryl)phenyl)-3-(4-nitrophenyl)acrylamide] |  |  |  |  |  |  |  |  | 72 | 85 | 61 | 15700 | 97 | 17000 | 10300 | 40800
COc1ccc(C=Cc2cc(OC)c(OC)c(OC)c2)c(NC(=O)/C=C/c2cc(OC)c(OC)c(OC)c2)c1O [Compound 20ab, (E)-N-(2-Hydroxy-3-methoxy-6-(3,4,5-trimethoxystyryl)phenyl)-3-(3,4,5-trimethoxyphenyl)acrylamide] |  |  |  |  |  |  |  |  | 79 | 95 | 24800 | 14900 | 28000 | 20900 | 76000 | 64500
COc1cc(/C=C/C(=O)Nc2c(C=Cc3cc(OC)c(OC)c(OC)c3)ccc(OC)c2O)ccc1O [Compound 20t, (E)-N-(2-Hydroxy-3-methoxy-6-(3,4,5-trimethoxystyryl)phenyl)-3-(4-hydroxy-3-methoxyphenyl)acrylamide] | 60 | 72 | 79 | 90 | 93 | 96 | 98 | 98 |  |  |  |  |  |  |  | 
COc1ccc(/C=C/C(=O)Nc2c(C=Cc3cc(OC)c(OC)c(OC)c3)ccc(OC)c2O)cc1OC [Compound 20s, (E)-3-(3,4-Dimethoxyphenyl)-N-(2-hydroxy-3-methoxy-6-(3,4,5-trimethoxystyryl)phenyl)acrylamide] | 56 | 60 | 90 | 7500 | 94 | 99 | 99 | 29900 |  |  |  |  |  |  |  | 
COc1ccc(C=Cc2cc(OC)c(OC)c(OC)c2)c(NC(=O)/C=C/c2ccc(F)cc2)c1O [Compound 20r, (E)-3-(4-Fluorophenyl)-N-(2-hydroxy-3-methoxy-6-(3,4,5-trimethoxystyryl)phenyl)acrylamide] | 66 | 83 | 43000 | 24000 | 23500 | 47500 | 67600 | 78100 |  |  |  |  |  |  |  | 
COc1ccc(C=Cc2cc(OC)c(OC)c(OC)c2)c(NC(=O)/C=C/c2ccc(C(F)(F)F)cc2)c1O [Compound 20n, (E)-N-(2-Hydroxy-3-methoxy-6-(3,4,5-trimethoxystyryl)phenyl)-3-(4-(trifluoromethyl)phenyl)acrylamide] |  |  |  |  |  |  |  |  | 83700 | > 100000 | > 100000 | > 100000 | 58000 | > 100000 | > 100000 | > 100000
COc1ccc(/C=C/C(=O)Nc2c(C=Cc3cc(OC)c(OC)c(OC)c3)ccc(OC)c2O)cc1N [Compound 20z, (E)-3-(3-Amino-4-methoxyphenyl)-N-(2-hydroxy-3-methoxy-6-(3,4,5-trimethoxystyryl)phenyl)acrylamide] | 50 | 79 | 44 | 91 | 89 | 97 | 89 | 14300 |  |  |  |  |  |  |  | 
